# Reference: US6737383B1, “Herbicidal oxadiazolidines” (priority 1999, dated 2004)
# Legend:
# bedstraw = experiment: Test B pre/postemergence bedstraw; format: in vivo, Galium aparine
# Method in brief: (§1)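 Herbicidal effect was estimated by eye on a ten-point control scale after plants spent twelve to sixteen days in a greenhouse following soil or foliar treatment. Foliar sprays targeted plants at one to four leaves; all doses were formulated in a non-phytotoxic solvent with surfactant.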
# blackgrass = experiment: Test B pre/postemergence blackgrass; format: in vivo, Alopecurus myosuroides
# Method in brief: as §1
# surinam grass = experiment: Test B pre/postemergence surinam grass; format: in vivo, Brachiaria decumbens
# Method in brief: as §1
# cocklebur = experiment: Test B pre/postemergence cocklebur; format: in vivo, Xanthium strumarium
# Method in brief: as §1
# corn = experiment: Test B pre/postemergence corn; format: in vivo, Zea mays
# Method in brief: as §1
# crabgrass = experiment: Test B pre/postemergence crabgrass; format: in vivo, Digitaria sanguinalis
# Method in brief: as §1
# rape = experiment: Test B pre/postemergence rape; format: in vivo, Brassica napus
# Method in brief: as §1
# soybean = experiment: Test B pre/postemergence soybean; format: in vivo, Glycine max
# Method in brief: as §1
# sugar beet = experiment: Test B pre/postemergence sugar beet; format: in vivo, Beta vulgaris; settings: for Plant response rating, Sugarbeets: Rate 250 g/ha
# Method in brief: as §1
# velvetleaf = experiment: Test B pre/postemergence velvetleaf; format: in vivo, Abutilon theophrasti; settings: for Plant response rating, Velvetleaf: Rate 250 g/ha
# Method in brief: as §1
# wheat = experiment: Test B pre/postemergence wheat; format: in vivo, Triticum aestivum; settings: for Plant response rating, Wheat: Rate 250 g/ha
# Method in brief: as §1
# wild oat = experiment: Test B pre/postemergence wild oat; format: in vivo, Avena fatua; settings: for Plant response rating, Wild oats: Rate 250 g/ha
# Method in brief: as §1
# purple nutsedge = experiment: Test B pre/postemergence purple nutsedge; format: in vivo, Cyperus rotundus
# Method in brief: as §1
# rice = experiment: Test B flood test rice; format: in vivo, Oryza sativa
# Method in brief: (§2)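 Read-out is a visual response score from 0 (no effect) to 10 (complete control), assigned by comparison with untreated controls. Treatment was applied at the 2-leaf stage, and plants stayed in the greenhouse for twelve to sixteen days before scoring.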
# smallflower flatsedge = experiment: Test B flood test smallflower flatsedge; format: in vivo, Cyperus difformis
# Method in brief: as §2
# duck salad = experiment: Test B flood test duck salad; format: in vivo, Heteranthera limosa
# Method in brief: as §2
# bamyardgrass = experiment: Test B flood test barnyardgrass; format: in vivo, Echinochloa crus-galli
# Method in brief: as §2
# [1] = Postemergence, Rate 62 g/ha, scale 0 to 10, 0 is no effect, 10 is complete control
# [2] = Postemergence, Rate 250 g/ha, scale 0 to 10, 0 no effect, 10 complete control
# [3] = Preemergence, Rate 62 g/ha, scale 0 to 10 (0 no effect, 10 complete control)
# [4] = Preemergence, Rate 125 g/ha, scale 0 to 10 (0 no effect, 10 complete control)
# [5] = Preemergence, Rate 250 g/ha, scale of 0 to 10 where 0 is no effect and 10 is complete control
# [6] = Preemergence, Rate 500 g/ha, scale 0 to 10 (0 no effect, 10 complete control)
# [7] = Rate 125 g/ha, Postemergence, scale 0 to 10, 0 no effect, 10 complete control
# [8] = Postemergence, Rate 125 g/ha, scale of 0 to 10 where 0 is no effect and 10 is complete control
# [9] = Rate 62 g/ha, Postemergence, scale of 0 to 10 where 0 is no effect and 10 is complete control
# [10] = Rate 500 g/ha, Postemergence, scale 0 to 10, 0 no effect, 10 complete control
# [11] = Preemergence, Rate 125 g/ha, 0 is no effect, 10 is complete control
# [12] = Preemergence, scale of 0 to 10 where 0 is no effect and 10 is complete control
# [13] = Postemergence, scale 0 to 10, 0 is no effect, 10 is complete control
# [14] = Postemergence (flood test species), Rate 125 g/ha, scale of 0 to 10 where 0 is no effect and 10 is complete control
# [15] = Rate 62 g/ha, Postemergence section, flood test species, scale of 0 to 10 where 0 is no effect and 10 is complete control
# [16] = Rate 250 g/ha, Postemergence (flood test), scale 0 to 10, 0 is no effect, 10 is complete control
# [17] = Rate 250 g/ha, headed Pre-emergence (flood test species), scale 0 to 10 (0 no effect, 10 complete control)
# [18] = Rate 500 g/ha, headed Pre-emergence (flood test species), scale 0 to 10 (0 no effect, 10 complete control)
# [19] = Rate 500 g/ha, listed under Postemergence (flood test species), scale 0 to 10, 0 no effect, 10 complete control
# [20] = Rate 1000 g/ha, Pre-emergence (as headed), scale 0 to 10
# [21] = Rate 2000 g/ha, Pre-emergence (as headed), scale 0 to 10
# [22] = flood test, listed under Postemergence, Rate 250 g/ha, scale 0 to 10, 0 no effect, 10 complete control
structure (smiles),measurement,setting,value
CC(C)N(C(=O)n1oc(=O)n(C2CCCCC2)c1=O)c1ccc(Cl)cc1 [Compound 111],Bedstraw plant response rating,bedstraw; [1],5
same,Bedstraw plant response rating,bedstraw; [2],7
same,Bedstraw plant response rating,bedstraw; [3],0
same,"Plant response rating, Bedstraw",bedstraw; [4],0
same,"Plant response rating, Bedstraw",bedstraw; [5],0
same,Bedstraw plant response rating,bedstraw; [6],3
same,Bedstraw plant response rating,bedstraw; [7],5
same,Blackgrass plant response rating,blackgrass; [8],3
same,Blackgrass plant response rating,blackgrass; [2],5
same,Blackgrass plant response rating,blackgrass; [3],0
same,"Plant response rating, Blackgrass",blackgrass; [4],0
same,"Plant response rating, Blackgrass",blackgrass; [5],2
same,Blackgrass plant response rating,blackgrass; [6],5
same,Blackgrass plant response rating,blackgrass; [9],0
same,Blackgrass plant response rating,blackgrass; [10],7
same,B. signalgrass plant response rating,surinam grass; [1],0
same,B. signalgrass plant response rating,surinam grass; [2],0
same,B. signalgrass plant response rating,surinam grass; [3],0
same,"Plant response rating, B. signalgrass",surinam grass; [4],1
same,"Plant response rating, B. signalgrass",surinam grass; [5],1
same,B. signalgrass plant response rating,surinam grass; [6],4
same,B. signalgrass plant response rating,surinam grass; [7],0
same,B. signalgrass plant response rating,"surinam grass; Rate 500 g/ha, Postemergence, scale of 0 to 10 where 0 is no effect and 10 is complete control",0
same,Cocklebur plant response rating,cocklebur; [8],0
same,Cocklebur plant response rating,cocklebur; [2],2
same,Cocklebur plant response rating,cocklebur; [3],0
same,"Plant response rating, Cocklebur",cocklebur; [4],0
same,"Plant response rating, Cocklebur",cocklebur; [5],0
same,Cocklebur plant response rating,cocklebur; [6],0
same,Cocklebur plant response rating,cocklebur; [9],0
same,Cocklebur plant response rating,cocklebur; [10],3
same,Corn plant response rating,corn; [8],0
same,Corn plant response rating,corn; [2],0
same,Corn plant response rating,corn; [3],0
same,"Plant response rating, Corn",corn; [4],1
same,"Plant response rating, Corn",corn; [5],4
same,Corn plant response rating,corn; [6],4
same,Corn plant response rating,corn; [9],0
same,Corn plant response rating,corn; [10],0
same,Crabgrass plant response rating,crabgrass; [8],2
same,Crabgrass plant response rating,crabgrass; [2],3
same,Crabgrass plant response rating,crabgrass; [3],6
same,"Plant response rating, Crabgrass",crabgrass; [4],7
same,"Plant response rating, Crabgrass",crabgrass; [5],9
same,Crabgrass plant response rating,crabgrass; [6],9
same,Crabgrass plant response rating,crabgrass; [9],1
same,Crabgrass plant response rating,crabgrass; [10],9
same,Rape plant response rating,rape; [8],3
same,Rape plant response rating,rape; [2],3
same,Rape plant response rating,rape; [3],0
same,"Plant response rating, Rape",rape; [4],0
same,"Plant response rating, Rape",rape; [5],4
same,Rape plant response rating,rape; [6],4
same,Rape plant response rating,rape; [9],3
same,Rape plant response rating,rape; [10],4
same,Soybean plant response rating,soybean; [8],3
same,Soybean plant response rating,soybean; [3],0
same,"Plant response rating, Soybean",soybean; [4],4
same,"Plant response rating, Soybean",soybean; [5],4
same,Soybean plant response rating,soybean; [6],5
same,Soybean plant response rating,soybean; [9],3
same,"Plant response rating, Soybean","soybean; Rate 250 g/ha, Postemergence, scale 0 to 10, 0 is no effect, 10 is complete control",4
same,Soybean plant response rating,soybean; [10],5
same,Sugarbeets plant response rating,sugar beet; [8],3
same,Sugarbeets plant response rating,sugar beet; [3],0
same,Sugarbeets plant response rating (0 to 10 scale),sugar beet; [11],0
same,"Plant response rating, Sugarbeets",sugar beet; [12],3
same,Sugarbeets plant response rating,sugar beet; [6],4
same,Sugarbeets plant response rating,sugar beet; [9],2
same,"Plant response rating, Sugarbeets",sugar beet; [13],3
same,Sugarbeets plant response rating,sugar beet; [10],4
same,Velvetleaf plant response rating,velvetleaf; [8],0
same,Velvetleaf plant response rating,velvetleaf; [3],0
same,Velvetleaf plant response rating (0 to 10 scale),velvetleaf; [11],0
same,"Plant response rating, Velvetleaf",velvetleaf; [12],3
same,Velvetleaf plant response rating,velvetleaf; [6],7
same,Velvetleaf plant response rating,velvetleaf; [9],0
same,"Plant response rating, Velvetleaf",velvetleaf; [13],0
same,Velvetleaf plant response rating,velvetleaf; [10],2
same,Wheat plant response rating,wheat; [8],0
same,Wheat plant response rating,wheat; [3],0
same,Wheat plant response rating (0 to 10 scale),wheat; [11],0
same,"Plant response rating, Wheat",wheat; [12],0
same,Wheat plant response rating,wheat; [6],3
same,Wheat plant response rating,wheat; [9],0
same,"Plant response rating, Wheat",wheat; [13],0
same,Wheat plant response rating,wheat; [10],0
same,Wild oats plant response rating,wild oat; [8],0
same,Wild oats plant response rating,wild oat; [3],0
same,Wild oats plant response rating (0 to 10 scale),wild oat; [11],0
same,"Plant response rating, Wild oats",wild oat; [12],2
same,Wild oats plant response rating,wild oat; [6],4
same,Wild oats plant response rating,wild oat; [9],0
same,"Plant response rating, Wild oats",wild oat; [13],1
same,Wild oats plant response rating,wild oat; [10],2
same,Nutsedge plant response rating,purple nutsedge; [8],0
same,Nutsedge plant response rating,purple nutsedge; [2],0
same,Nutsedge plant response rating,purple nutsedge; [3],0
same,"Plant response rating, Nutsedge",purple nutsedge; [4],0
same,"Plant response rating, Nutsedge",purple nutsedge; [5],0
same,Nutsedge plant response rating,purple nutsedge; [6],0
same,Nutsedge plant response rating,purple nutsedge; [9],0
same,Nutsedge plant response rating,purple nutsedge; [10],0
same,Rice plant response rating,rice; [14],0
same,Rice plant response rating,rice; [15],0
same,"Plant response rating, Rice",rice; [16],0
same,Rice plant response rating,rice; [17],0
same,"Plant response rating, Rice",rice; [18],0
same,Rice plant response rating,rice; [19],0
same,Rice plant response rating,rice; [20],0
same,Rice plant response rating,rice; [21],0
same,S. Flatsedge plant response rating,smallflower flatsedge; [14],0
same,S. Flatsedge plant response rating,"smallflower flatsedge; Pre-emergence, Rate 1000 g/ha, scale 0 to 10 (0 no effect, 10 complete control)",0
same,S. Flatsedge plant response rating,smallflower flatsedge; [15],0
same,"Plant response rating, S. Flatsedge",smallflower flatsedge; [16],0
same,S. Flatsedge plant response rating,smallflower flatsedge; [17],0
same,"Plant response rating, S. Flatsedge",smallflower flatsedge; [18],0
same,S. Flatsedge plant response rating,smallflower flatsedge; [19],0
same,S. Flatsedge plant response rating,smallflower flatsedge; [21],0
same,Ducksalad plant response rating,duck salad; [14],0
same,Ducksalad plant response rating,duck salad; [15],0
same,Ducksalad plant response rating,duck salad; [17],0
same,"Plant response rating, Ducksalad",duck salad; [18],0
same,Ducksalad plant response rating,duck salad; [19],0
same,Ducksalad plant response rating,duck salad; [20],0
same,Ducksalad plant response rating,duck salad; [21],0
same,Ducksalad plant response rating,duck salad; [22],0
same,Barnyardgrass plant response rating,bamyardgrass; [1],0
same,Barnyardgrass plant response rating,"bamyardgrass; Rate 125 g/ha, Postemergence section (flood test species), scale 0 to 10, 0 no effect, 10 complete control",0
same,Barnyardgrass plant response rating,bamyardgrass; [17],0
same,"Plant response rating, Barnyardgrass",bamyardgrass; [18],0
same,Barnyardgrass plant response rating,bamyardgrass; [19],0
same,Barnyardgrass plant response rating,bamyardgrass; [20],0
same,Barnyardgrass plant response rating,"bamyardgrass; Rate 2000 g/ha, Pre-emergence (as headed), scale 0 to 10, 0 no effect, 10 complete control",9
same,Barnyardgrass plant response rating,bamyardgrass; [22],0
